Patent US20100119595A1, “Monounsaturated fatty acids and perhydrocyclopentanophenanthrene nucleus combination molecules, and their precursors, and the use of all of these as weight-loss agents” (priority 2001, published 2010)

What was measured:
[1] = Human study of estrone eicosenoate as anti-obesity drug (Example 3); type: in vivo; conditions: humans, oral capsule every morning, 0.75 or 0.375 micromoles/kg
Protocol: • 1) The required number of subjects are properly screened to fulfill the necessary qualifications, • 2) appropriate laboratory evaluation are performed, • 3) various aspects of positive drug response in a manner acceptable for drug approval are recorded, • 4) adverse drug effects are documented, and • 5) patients are adequately followed-up.
In this random, double-blind, placebo controlled study, subjects are selected to one of three groups and take a capsule orally every morning containing one of the following: a) sunflower oil (placebo), b) estrone eicosenoate dissolved in sunflower oil at a dose of 0.75 micromoles/kg, or c) estrone eicosenoate dissolved in sunflower oil at a dose of to 0.375 micromoles/kg.
Subjects report weekly for measurements and assessment of any side effects. […]
Different tests are performed at least five different times during each study, namely at the screening of potential participants, at the beginning of the study, weekly during the trials, at the end of the first 4 week period and at the end of the second 4 week treatment period. • 1) SCREENING: Subjects are screened to exclude hypothyroidism, pregnancy, and heart disease. […] Subjects selected to participate in the studies have the following initial measurements: WEIGHT, WAIST to HIP RATIO, HEIGHT, BMI (calculated), BODY FAT % & TOTAL BODY FAT (via bioelectrical impedance method). […]

[2] = Rabbit study at mole/kg dose equivalent to that used for oleoyl-estrone in rats; type: in vivo, rabbits
Source text: The eicosenoic acid-estrogen monoesters mimic the function of the naturally occurring fatty acid monoester, estrone monooleate, as a signal that informs the brain of the size of fat tissue mass. When administered to rabbits, they produce weight reduction of about 20%, by a) decreasing food intake and b) by a new and unexpected mechanism. Eicosenoic acid-estrogen monoesters are useful for the treatment of obesity and/or overweight in mammals, with the advantages of high efficacy and low toxicity.

[3] = Dog weight-loss study, estrone eicosenoate vs oleoyl-estrone (Example 2); type: in vivo; conditions: oral 21 days, 5, 3.33 or 2.5 micromoles/kg vs OE 10 micromoles/kg
Source text: Dogs are selected and initial measurements taken. The initial measurements include weight and electrical impedance for each dog as measured by a standard impedance measuring device with electrodes placed between the front and rear paws. The dogs are placed individually in appropriate cages and allowed an ad libitum diet of standard dog chow and water for a 10-day period. Daily measurements include the following: • 1. Weight • 2. Weight of food consumed • 3. Water consumed, both volume and weight Every other day, the dogs' electrical impedance is measured as an indicator of fat tissue content and loss. The dogs remain confined with out of cage activity or exercise for the duration of the experiment. This initial 10-day period establishes a pattern and average of weight gain, impedance change, and food and water consumption for each dog. […] This assures the dogs will readily accept the bread ball as a drug delivery device. […] An appropriate volume of either OE or EE is placed into the center of a thick piece of dense sweet bread (non-porous), carefully rolled into a small ball so none of the to compound leaks out, and sprinkled on the outer surface with sugar or syrup as determined above. […] Electrical impedance of each dog is measured every other day.

CCCCCCCC/C=C\CCCCCCCCCC(=O)Oc1ccc2c(c1)CC[C@@H]1[C@@H]2CC[C@]2(C)C(=O)CC[C@@H]12 [EE, estrone eicosenoate]
appetite [1]: reduces appetite | weight loss, loss of body fat, and/or decrease of body fat% [1]: produces weight loss | greater reduction in appetite in rabbits than oleoyl-estrone did in rats [2]: 50% | greater weight loss in rabbits than oleoyl-estrone did in rats [2]: 60% | weight loss compared with dogs receiving oleoyl-estrone [3]: greater weight loss
